Assays:
Assay type in all cases: organism-based
Oryctolagus cuniculus = organism: Oryctolagus cuniculus; experiment: Dermal toxicity in rabbit skin; details: in vivo
Triticum aestivum [1] = experiment: Toxicity in Triticum aestivum assessed as inhibition of coleoptiles growth at 0.01 mM; details: in vivo, 10 µM
Triticum aestivum [2] = experiment: Toxicity in Triticum aestivum assessed as inhibition of coleoptiles growth at 0.1 mM; details: in vivo, 100 µM
Triticum aestivum [3] = experiment: (§1) Toxicity in Triticum aestivum assessed as inhibition of coleoptiles growth at 1 mM; details: in vivo, 1000 µM
[4] = as §1; details: Triticum aestivum coleoptiles, read-out: Activity

| SMILES | ED50 (Oryctolagus cuniculus) [µg] | Activity (Triticum aestivum [1]) | Activity (Triticum aestivum [2]) | Activity (Triticum aestivum [3]) | inhibition at 1000 µM [4] [%] |
| --- | --- | --- | --- | --- | --- |
| CC1=C[C@H]2O[C@@H]3[C@H](O)[C@@H](O)[C@](C)([C@@]2(CO)C[C@@H]1O)[C@]31CO1 | > 1.28 | – | – | – | – |
| CC(=O)OC[C@]12C[C@H](OC(=O)CC(C)(C)O)C(C)=C[C@H]1O[C@@H]1[C@H](O)[C@@H](O)[C@@]2(C)[C@]12CO2 | > 1.28 | Toxic | Toxic | Toxic | – |
| CC(=O)OC[C@]12C[C@H](O)C(C)=C[C@H]1O[C@@H]1[C@H](O)[C@@H](O)[C@@]2(C)[C@]12CO2 | > 1.28 | – | – | – | 59 |
| CC1=C[C@H]2O[C@@H]3[C@H](O)[C@@H](O)[C@](C)([C@@]2(CO)C[C@@H]1OC(=O)CC(C)(C)O)[C@]31CO1 | > 1.28 | Toxic | Toxic | Toxic | – |
| CC(=O)OC[C@]12C[C@H](OC(=O)CC(C)C)C(C)=C[C@H]1O[C@@H]1[C@H](O)[C@@H](O)[C@@]2(C)[C@]12CO2 [HT-2 TOXIN] | 0.16 | Toxic | Toxic | Toxic | – |
| CC(=O)OC[C@]12C[C@H](OC(=O)CC(C)C)C(C)=C[C@H]1O[C@@H]1[C@H](O)[C@@H](OC(C)=O)[C@@]2(C)[C@]12CO2 [T-2 TOXIN] | < 0.16 | Toxic | Toxic | Toxic | – |

Source: ChEMBL document CHEMBL1151365, “The isolation and identification of several trichothecene mycotoxins from Fusarium heterosporum” (J Nat Prod, 1981)
